For orientation: IC50 means the concentration that inhibits the measured activity by half.

Structures are written as SMILES.

One compound from patent EP1831198B1, “PYRIDINE CARBOXAMIDE DERIVATIVES FOR USE AS ANTICANCER AGENTS” (AstraZeneca AB, priority 2004, dated 2006) can be followed below.

This experiment concerns the target human recombinant, purified wild type His-B-Raf protein kinase (Homo sapiens, UniProt P15056). Kind of experiment: B-Raf in vitro ELISA assay. It counts as biochemical. As to conditions: phosphorylation of MEK1; 2.5 nM B-Raf, 0.15 µM MEK1, 10 µM ATP. The source says: Data was graphed and IC50s calculated using Excel Fit (Microsoft).

Sequence of human recombinant, purified wild type His-B-Raf protein kinase (P15056 whole entry): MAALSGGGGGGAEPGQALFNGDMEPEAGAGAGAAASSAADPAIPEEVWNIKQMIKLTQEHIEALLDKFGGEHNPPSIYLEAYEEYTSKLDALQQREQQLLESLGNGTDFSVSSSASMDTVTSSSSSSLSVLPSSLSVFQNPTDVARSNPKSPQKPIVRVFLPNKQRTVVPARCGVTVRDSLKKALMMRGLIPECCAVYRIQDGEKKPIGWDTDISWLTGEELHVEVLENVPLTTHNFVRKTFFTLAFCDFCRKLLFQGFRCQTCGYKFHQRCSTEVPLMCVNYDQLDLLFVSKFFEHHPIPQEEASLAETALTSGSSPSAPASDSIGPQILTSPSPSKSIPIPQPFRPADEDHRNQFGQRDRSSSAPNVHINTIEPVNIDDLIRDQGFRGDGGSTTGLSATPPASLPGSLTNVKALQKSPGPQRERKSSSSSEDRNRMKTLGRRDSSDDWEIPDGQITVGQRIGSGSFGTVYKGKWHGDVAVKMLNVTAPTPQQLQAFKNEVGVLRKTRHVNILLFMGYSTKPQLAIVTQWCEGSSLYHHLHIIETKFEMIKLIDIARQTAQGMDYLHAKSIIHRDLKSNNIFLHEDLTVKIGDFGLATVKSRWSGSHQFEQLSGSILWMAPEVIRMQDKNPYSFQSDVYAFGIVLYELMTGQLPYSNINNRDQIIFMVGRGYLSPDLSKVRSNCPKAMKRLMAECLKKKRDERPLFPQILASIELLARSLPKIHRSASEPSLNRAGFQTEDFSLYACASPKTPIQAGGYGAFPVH

For the compound `Cc1ccc(NC(=O)c2cccc3c2OCC3)cc1C(=O)Nc1cccnc1` [Example 9, N-{4-Methyl-3-[(pyridin-3-ylamino)carbonyl]phenyl}-2,3-dihydro-1-benzofuran-7-carboxamide], the IC50 worked out at 1080 nM.
